Measured values reported in patent publication US20080090916A1, “Compounds for Treating Urinary Incontinence” (priority 2005, published 2008).

How the values were obtained:
[1] = tested on: pig vesicourethral junction sphincter muscle; assay: Functional assay: dose response on isolated pig vesicourethral junction sphincter muscle strips; format: cell-based; settings: for EC50: Sus scrofa, contraction, from dose response curve, read-out: relative potencies (EC50); for contractile response of muscle strip (representative traces): compound alone, FIG. 1; for maximum response: mean ±SEM
Description: Samples of female white landrace pig bladder and urethra were obtained from freshly slaughtered pigs at the local abattoir. The pigs were killed by exsanguination after initial stunning by electric shock. The anus, rectum, bladder and urethra were then excised en bloc during evisceration and immediately transferred into pre oxygenated Krebs' solution (1 mmol/l: NaCl 120, KCl 5.9 NaHCO3 15.4, CaCl2 2.5, MgCl2 1.2, glucose 11.5) and transported to the laboratory, where they were stored in the refrigerator (at 4° C.) until ready to be processed.
The location of the vesicourethral junction sphincter was then identified. The bladders were inflated via a transurethral catheter with 200 ml. fluid. The fluid was then gently squeeze towards the outlet, until a sharp narrowing of the bladder base becomes apparent (Dass, 1997; Dass et al., 2001). Tissue sections from this region were then denuded of urothelium, and dissected transversely into a number of muscle strips.
Muscle strips measuring about 5-6 mm by 2-3 mm with an average weight of 7 mg were dissected, fine (5/0) silk threads were tied at each end of the strips and each strip mounted vertically in a 0.2 ml capacity, perspex organ bath between two recessed platinum electrodes through which electrical field stimulation (EFS) could be delivered. Strips were constantly superfused with Krebs' solution (37° C.) at a rate of 1.5 ml 1 min. The Krebs' solutions were gassed with 97% oxygen 3% carbon dioxide. Drugs were delivered by substituting drug containing solutions of the desired concentration for Krebs' solutions.
The apparatus comprised of six organ baths in parallel allowing the study of six strips simultaneously as described by Brading and Sibley (1983). Each channel was calibrated with a 1 g weight attached to the transducer before each experiment, and tissues were tensioned to 1 g after mounting. Isomeric tension generated by the strips was measured using isomeric force displacement transducers, Pioden Dynamometer UFI transducers (Pioden Controls Ltd, Canterbury, Kent) or AD Instruments MLT050/D force transducers, amplified (Harvard Transducer/Amplifier, Harvard Apparatus Ltd, Edenbridge, Kent) and analyzed using MacLab Data Acquisition system (AD Instruments, Sydney, Australia) or AD Instruments OCTAL Bridge Amplifier connected to Power Lab/8SP (AD Instruments, Sydney, Australia) and Chart v3.6 software (Macintosh) or Chart v5 (PC).
Dose response curves for the various compounds were constructed by testing one drug on a pair of strip in each experiment. The preparations were subjected to a sequence of successive 10 s […] applications of increasing doses of drugs with intervening washout periods.
1R,2S-methoxamine hydrochloride, the compound of formula (Ia) and the compound of formula (III) were made available by Norgine International Research, Middlesex.
Responses were reported as either grams of tension or % maximum force and given as mean values ±SEM. EC50 values were used as a measure of potency. The EC50 values were measured from the graph of dose response curve using the kaleidograph graphical software applications. Results were assessed using statistical analysis software, StatView 5.0 (SAS Institute Inc.) using ANOVA followed by Fisher's test. Significant difference between data was assumed with p<0.05.

[2] = tested on: mini pigs; settings: 1 mg/kg i.v., at maximum effect; cited from earlier work
[3] = tested on: vesicourethral junction sphincter muscle strips; assay: Enzyme assay: regeneration of 1R,2S-methoxamine from compound (Ia) by gamma glutamyl transferase, reaction product tested on muscle strips; format: cell-based, pig; settings: 0.3 mM
Description: Regeneration of 1R,2S-methoxamine from the Compound of Formula (Ia)
Into a clean glass vial (1 ml volume) the following reaction mixtures were pipetted as follows:
200 μl compound of formula (Ia), 10 mg/ml in Tris buffer (mol. wt. 376, therefore=2 mg compound of formula (Ia)=5.3 μMoles), 100 μl solution E
Reaction product of groups 1, 2 and 3 were only tested for biological activity after 30 minutes of incubation period at 37° C. while that of group 4 were also tested after, 10, 30 and 60 minutes of incubation period. A 5 h group of which reaction mixture indicated in group four were diluted by two fold after 30 min incubation were also tested for biological activity.
Gamma glutamyl transferase, 2-1-18 porcine kidney was purchased from Calzyme Labs San Luis Obispo, Calif. 93401 USA, glyclglycine was obtained from Acros Organics, New Jersey, USA while L-glutamic acid 5-(4-nitroanilide) was purchased from Fluka Chemie Switzerland.
The reaction mixture was incubated in HOT BOX oven, size one incubator made by Gallenpark, England, while the absorbance was measured (@λmax 405 nm), using Anthos 2020 UV/VIS spectrophotometer.
Representative traces of pig vesicourethral junction sphincter muscle response to various enzyme reaction products are shown in FIG. 3 and representative traces of pig proximal sphincter muscle response to various enzyme reaction products are shown in FIG. 4. The enzyme reaction products tested are as follows: • FIG. 3a-50 mM Tris HCl buffer; • FIG. 3b-50 mM Tris HCl buffer, gamma glutamyl transferase. • FIG. 3c-50 mM Tris HCl buffer, MgCl2.6H2O, glycylglycine, compound of formula (Ia); • FIG. 4a-50 mM Tris HCl buffer, MgCl2.6H2O, glycylglycine, gamma glutamyl transferase, compound of formula (Ia); • FIG. 4b-0.3 mM 1R,2S-methoxamine.

[4] = Influence of intra-anally applied 1R,2S-methoxamine gel on micturition in subjects; format: in vivo; settings: experimental studies with appreciable systemic levels
Description: The study was conducted according to the following protocol:
• a) 1% by weight 1R,2S-methoxamine in 4% w/w gel • b) 3% by weight 1R,2S-methoxamine in 4% w/w gel • The 4% w/w gel comprises 4 g of hydroxypropylmethyl cellulose in 96 ml of 0.5M acetate buffer. 1% by weight 1R,2S-methoxamine in 4% w/w gel comprises 1 g of 1R,2S-methoxamine in 99 g of the 4% gel. Investigation
In a study for other purposes including 44 subjects, each subject had either the 3% methoxamine gel or the 1% methoxamine gel applied intra-anally. About 1 g of gel was used.

COc1ccc(OC)c([C@@H](O)[C@H](C)NC(=O)[C@@H](N)CCC(=O)O)c1 [compound of formula (III), (S)-4-Amino-4-[(1S,2R)-2-(2,5-dimethoxyphenyl)-2-hydroxy-1-methyl-ethylcarbamoyl]butyric acid]
biological activity retained relative to 1R,2S-methoxamine [1]: approximately 10% | EC50 [1]: 495 µM | contractile response of muscle strip (representative traces) [1]: well defined contractile response | maximum response ([1]; observed at 10^−2M): 1.33 g

COc1ccc(OC)c([C@@H](O)[C@H](C)N)c1 [1R,2S-methoxamine, (1R,2S)-2-amino-1-(2,5-dimethoxyphenyl)propan-1-ol]
rise in diastolic pressure [2]: 57% | rise in systolic pressure [2]: 23% | EC50 [1]: 56.2 µM | maximum response ([1]; at a concentration of 10^−3M): 1.12 g | contractile response of muscle strip (representative traces) [1]: pronounced well defined contractile response | less effective than Mg^2+-glycylglycine-compound of formula (Ia)-enzyme mixture [3]: 29% | contractile (bladder) response ([3]; no enzyme): 1.15 g | unwanted systemic side effects [4]: elevation of blood pressure
